# From PMC12040169 (PLOS Biology, 2025)
# Assay: in vitro
# Conditions: human, hela cells, % viability
row,Structure (SMILES),"viability at 28.5 h, 10 µM [%]"
1,O=C(COC(=O)c1cc(-c2ccco2)nc2ccccc12)Nc1ccc(F)c(F)c1F [CBK296115],84.6
2,COc1ccc(-c2csc(NC(=O)NS(=O)(=O)c3ccc(C)cc3)n2)cc1 [CBK296117],88
3,COc1ccc(-c2nn(-c3ccccc3)cc2C(=O)Nc2ccc(C(=O)O)cc2)cc1 [CBK296121],106
4,O=C(O)c1ccc(NC(=O)c2cn(-c3ccccc3)nc2-c2cccnc2)cc1 [CBK296122],102
5,COc1ccc(C2=CC(c3ccc(C(F)(F)F)cc3)n3nnnc3N2)cc1OC (centres unmarked) [CBK296131],117
6,COc1ccccc1N1CCN(C(=O)CC2(CC(=O)O)CCCC2)CC1 [CBK296137],105
7,O=C(O)CSCC(=O)N(Cc1ccccc1)c1nc(-c2ccccc2)c(-c2ccccc2)s1 [CBK296138],97.5
8,COc1ccccc1NC(=O)C1=C(C)NC(SCC(=O)Nc2ccc(C(=O)O)cc2)=C(C#N)C1c1cccs1 (centres unmarked) [CBK296139],102
9,CC(=O)NS(=O)(=O)c1ccc(NC(=O)CCSc2ccc(C)cc2)cc1 [CBK296141],88.5
10,CN(C(=O)c1ccc2c(c1)NC(=O)CS2)c1ccccc1 [CBK296612],105
11,CCN(CC)Cc1cc([N+](=O)[O-])cc2c1OCOC2 [CBK296613],113
12,CC(=O)c1ccc(NC(=O)C(C)SCc2ccc(C)cc2)cc1 (centres unmarked) [CBK296616],96.7
13,CC(=O)Nc1ccccc1OCc1cc(-c2ccccc2)on1 [CBK296617],99.8
14,Cc1noc(C(C)C)c1C(=O)NC(C)c1cccc(Br)c1 (centres unmarked) [CBK296618],92.8
15,CC(NC(=O)c1ccc(-n2cccc2)cc1)c1ccccn1 (centres unmarked) [CBK296619],91.4
16,COc1cc(OC)c(NS(=O)(=O)c2ccc(C(=O)O)cc2)cc1Cl [CBK296620],97.5
17,COc1ccc2c(-c3ccccc3)cc(=O)n(CCS(=O)(=O)Oc3ccccc3)c2c1 [CBK296621],84.6
18,O=C(c1ccc(OC(F)(F)F)cc1)N1CCN(c2nnnn2-c2ccccc2)CC1 [CBK296622],93.5
19,CCOC(=O)c1sc(NS(=O)(=O)c2ccc(C(=O)O)cc2)cc1C [CBK296623],100
20,COc1ccc(COC(=O)C2CC(=O)N(Cc3ccc(C)cc3)C2)cc1 (centres unmarked) [CBK296624],89
21,Cc1nc2c(cc(OCC(O)COc3ccc(C#N)cc3)c3ccsc32)s1 (centres unmarked) [CBK296632],84.6
22,Cc1cccc(-c2n[nH]c(=S)n2CC(=O)Nc2cccc(C#Cc3ccccn3)c2)c1 [CBK296633],92.8

row,Structure (SMILES),"viability at 28.5 h, 10 µM [%]"
1,COc1cccc(CC(=O)Nc2nc(Cc3n[nH]c(=S)n3C)cs2)c1 [CBK296634],98.5
2,COc1cc(NC(=O)CC2(CC(=O)O)CCCCC2)ccc1N1CCCC1=O [CBK296637],105
3,Cc1ccc(S(=O)(=O)Nc2cccc(NC(=O)c3ccco3)c2)cc1C(=O)O [CBK296638],105
4,O=C(Nc1ccccc1C(=O)NCCCc1nc2ccccc2[nH]1)c1cccs1 [CBK296641],107
5,CN(CCCn1c(=S)[nH]c2ccccc2c1=O)C1CCCCC1 [CBK296642],103
6,Cc1oc2nc(CSc3ccc4ccccc4c3)[nH]c(=O)c2c1C(=O)O [CBK296645],92.4
7,CC(C)CCCC(C)NC(=O)COc1cc(C(=O)O)cc(C(=O)O)c1 (centres unmarked) [CBK296646],86.8
8,Cc1nc2ccc(C(=O)N3CCN(C(=O)c4ccc(Cl)cc4)CC3)cc2nc1C [CBK296647],85
9,CCOc1ccc(N2C(=O)CC(Nc3cc(C(=O)O)ccc3C)C2=O)cc1 (centres unmarked) [CBK296651],97.1
10,CC(C)(C)C(=O)NCCCC(=O)Nc1nc2ccc(Oc3ccccc3)cc2s1 [CBK296652],97.9
11,CCCCn1c(SCC(O)COCc2ccc(OC)c(OC)c2)n[nH]c1=O (centres unmarked) [CBK296653],99.3
12,Cc1cc(CN2CCN(c3nc(-c4ccccc4)nc4ccccc34)CC2)no1 [CBK296654],87.7
13,COc1ccc(NC(=O)CCSCCC(=O)O)cc1S(=O)(=O)N1CCCCC1 [CBK296655],80.3
14,CC(=O)Nc1ccc(NC(=O)CCn2c(-c3cccc(C)c3)n[nH]c2=S)cc1Cl [CBK296656],99.3
15,Cc1nc(C(=O)N(C)C(C)c2cc3ccccc3o2)nn1-c1ccc(F)cc1 (centres unmarked) [CBK296657],108
16,O=C(O)c1ccc(S(=O)(=O)Nc2ccc(OC3CCCC3)cc2)cc1 [CBK296658],110
17,O=C(CCNS(=O)(=O)c1ccccc1)OCc1ccc([N+](=O)[O-])cc1 [CBK296659],94.4
18,CC(=O)c1ccc(C(=O)N(C)Cc2ccc(F)cc2)s1 [CBK296660],99.8
19,CC12CCC(=O)N1C(C(=O)NCCNc1ccc(S(C)(=O)=O)cc1[N+](=O)[O-])CS2 (centres unmarked) [CBK296661],87.6
20,O=C(Nc1cccc(-c2nnco2)c1)C1CCCCC1 [CBK296662],86.2
21,CCN(CC)C(=O)c1cccc(NS(=O)(=O)c2ccc(C)c(C(=O)O)c2)c1 [CBK296665],111
22,COc1cc(Cl)c(C)cc1NC(=O)C1CC=CCC1C(=O)O (centres unmarked) [CBK296667],94.1

row,Structure (SMILES),"viability at 28.5 h, 10 µM [%]"
1,CC(C)(Oc1ccc(Cl)cc1)C(=O)Nc1ccc(CN2C(=O)CNC2=O)cc1 [CBK296668],103
2,COc1ccccc1NS(=O)(=O)c1ccc(C)c(C(=O)NCC(c2ccco2)N2CCCCC2)c1 (centres unmarked) [CBK296669],81.3
3,COC(=O)CNC(=O)C1CC(=O)N(c2ccccc2Br)C1 (centres unmarked) [CBK296672],97.1
4,O=C(CCc1ccc(S(=O)(=O)NC2CC2)cc1)N1CCCC1c1ccncc1 (centres unmarked) [CBK296673],106
5,CCC(C)(C)C1CCC(NC(=O)CSCCC(=O)O)CC1 (centres unmarked) [CBK296674],107
6,Cc1ccc2nc(C)cc(C(=O)OCc3ccc(C(N)=O)cc3)c2c1 [CBK296676],97.8
7,CN(Cc1ccccc1NCCn1c(=O)oc2ccccc21)C1CCCCC1 [CBK296678],78.1
8,CC(C)Cn1c(SCC(=O)Nc2ccc(OC(F)F)cc2)nc(O)cc1=O [CBK296679],91.2
9,COC(=O)c1ccc(NS(=O)(=O)c2ccc(C)c(C(=O)O)c2)c(C)c1 [CBK296684],105
10,Cc1cc(C(=O)Nc2nc(Cc3n[nH]c(=S)n3C)cs2)sc1C [CBK296687],68.5
11,Cc1ccc(C(=O)O)cc1S(=O)(=O)Nc1ccc(-c2cn3ccsc3n2)cc1 [CBK296688],85.2
12,Cc1nc(NC(=O)Cc2c(C)nn(CC(C)C)c2C)sc1-c1n[nH]c(=S)n1C [CBK296691],88.6
13,CN(Cc1ccccc1N1CCOCC1)C(=O)c1ccc2ncsc2c1 [CBK296692],108
14,CCC(C)c1ccc(NC(C)C(=O)Nc2ccc3[nH]c(=O)[nH]c3c2)cc1 (centres unmarked) [CBK296694],92.1
15,CN(C)CC(=O)N1CCN(c2ccc(C(=O)c3ccccc3)cc2[N+](=O)[O-])CC1 [CBK296699],85.4
16,CCn1c(=O)c(C=Cc2cc(OC)c(O)c(OC)c2)nc2cc(C(=O)O)ccc21 [CBK296701],85.1
17,CC(C)(CC(=O)O)CC(=O)Nc1cc(S(=O)(=O)N2CCCC2)ccc1Cl [CBK296702],95.4
18,CCOc1ccc(C2=NN(C(=O)CCC(=O)O)C(c3ccc4nccnc4c3)C2)cc1 (centres unmarked) [CBK296703],103
19,CCOc1cc2c(cc1NS(=O)(=O)c1cc(C(=O)O)ccc1C)OC(C)C2 (centres unmarked) [CBK296711],101
20,O=C(Nc1cccc(-c2nnn[nH]2)c1)c1ccc(C2CCCCC2)cc1 [CBK296712],114
21,O=C(CSCCOc1ccc(Br)cc1)Nc1ccc2c(c1)OCCO2 [CBK296714],108
22,O=C(Nc1cccc2ncccc12)c1cccc(Oc2ccccc2)c1 [CBK296716],91.7

row,Structure (SMILES),"viability at 28.5 h, 10 µM [%]"
1,NC(=O)C1CCN(C(=O)c2cc(O)nc3ccccc23)CC1 [CBK296719],98.2
2,COc1cc(C=CC(=O)O)ccc1OCc1cn2cc(Cl)ccc2n1 [CBK296722],99.1
3,Cc1ccc(CCC2CCN(C(=O)c3ccc(O)nc3)CC2)cc1 [CBK296724],94.4
4,CCc1ccc(-c2csc(NS(=O)(=O)c3cccc(C(=O)O)c3)n2)cc1 [CBK296726],91
5,Cc1ccc(CSCCNS(=O)(=O)c2ccsc2C(=O)O)cc1 [CBK296727],92.6
6,COc1ccccc1Oc1ccc(NS(=O)(=O)c2cccc(C(=O)O)c2)cc1 [CBK296728],108
7,Cc1nc(NC(=O)c2ccoc2)sc1C [CBK296729],103
8,O=C(NCc1ccccc1F)c1cccc(CN2C(=O)CSC2=O)c1 [CBK296730],100
9,CCOc1ccc(-c2nc(CSc3n[nH]c(=O)n3Cc3ccccc3)cs2)cc1 [CBK296737],102
10,CC(c1ccc(S(C)(=O)=O)cc1)N(C)C(=O)COc1ccc2ccccc2c1 (centres unmarked) [CBK296738],103
11,Cc1ccc(-c2n[nH]c(=S)n2CCC(=O)N2CCC(c3c[nH]c4ccccc34)CC2)cc1 [CBK296739],86.8
12,O=C(CCN1C(=O)COc2ccccc21)Nc1ccnn1Cc1ccccc1Br [CBK296740],99.8
13,COc1ccc(-c2nc(COC(=O)c3cccnc3N)cs2)cc1OC [CBK296741],82.6
14,Nc1nc(Cn2nc(-c3ccc(F)cc3)oc2=O)nc(Nc2ccc(F)cc2)n1 [CBK296742],91.6
15,Cc1ccc(C)c(NC(=O)C(C)Sc2nc3ccccc3nc2C)c1 (centres unmarked) [CBK296744],106
16,CCCNC(=O)C(C)Sc1nc2ccsc2c(=O)n1CC (centres unmarked) [CBK296745],105
17,COc1ccccc1NC(=O)C1CCN(C(=O)OC(C)(C)C)CC1 [CBK296746],90.5
18,CC1CC1C(=O)NCC(=O)N1CCN(S(=O)(=O)c2ccccc2[N+](=O)[O-])CC1 (centres unmarked) [CBK296747],90.4
19,CC(Nc1ccc2[nH]c(=O)[nH]c2c1)C(=O)N1CCN(c2ccccc2)CC1 (centres unmarked) [CBK296748],99.4
20,N#Cc1ccccc1CSCCNC(=O)c1ccc(NC(=O)c2ccco2)s1 [CBK296749],80.8
